Measurements taken from US5047398A, “DDAVP antidiuretic and method therefor” (Ferring B.V., priority 1983, dated 1991).
Where two headings read alike, the source gives them in different places.

How the values were obtained:
healthy subjects [1] = assay type: in vivo, human
Method: Ten healthy subjects of both sexes, aged 18 through 43 were treated with DDAVP and 4-Asn-DDAVP.
One to two hours after a normal breakfast, the subjects were hydrated by drinking the volume of tap water that corresponded to 2% of their body weight. Every 15 minutes, urine was collected and its volume and osmolality were measured using an Advanced Osmometer Model 3D11. In order to overhydrate themselves, the subjects substituted their loss of fluid by drinking a volume of tap water that corresponded to the amount of urine collected. After about 40 to 45 minutes, the diuresis increased to about 200 milliliters per 15 minute period. At that time, DDAVP or 4-Asn-DDAVP in amounts of from 20 to 200 micrograms was administered perorally in 50 milliliters of distilled water. The DDAVP and 4-Asn-DDAVP were supplied by Ferring AB in lyophilized powder form which could easily be dissolved in water. The water diuresis was followed continually up to 6 hours.

healthy subjects [2] = test: Water diuresis in overhydrated subjects after injection through a duodenal tube; assay type: in vivo, human; conditions: 200 micrograms in 10 ml water through duodenal tube, two subjects
Method: Two of the subjects were supplied with a duodenal tube which was inserted through the nose. The end of the tube was placed with the help of X-rays in the distal part of the duodenum. Overhydration and urine sampling were then carried out as described above. […] After this, 200 micrograms of DDAVP dissolved in 10 milliliters of water were injected through a tube.

[3] = in vivo; cited from earlier work

Molecule	side-effects (healthy subjects [1]; human, in vivo)	therapeutic (antidiuretic) effect (healthy subjects [1]; peroral, 20 microgram dosage)	dose dependence of antidiuretic response (magnitude and duration) (healthy subjects [1]; peroral, 20 to 200 micrograms in 50 ml distilled water)	duration of antidiuretic effect (healthy subjects [1]; peroral, 20 to 200 micrograms, diuresis followed up to 6 hours)	antidiuretic response with increase in osmolality and conductivity of urine (healthy subjects [2])	antidiuretic activity [3]	therapeutic (antidiuretic) effect (healthy subjects [1]; oral, dose of 100 micrograms)	antidiuretic effect (healthy subjects [1]; oral, doses 20 to 200 micrograms, effect only with the highest dose)
NC(=O)CC[C@@H]1NC(=O)[C@H](Cc2ccccc2)NC(=O)[C@H](Cc2ccc(O)cc2)NC(=O)CCSSC[C@@H](C(=O)N2CCC[C@H]2C(=O)N[C@H](CCCN=C(N)N)C(=O)NCC(N)=O)NC(=O)[C@H](CC(N)=O)NC1=O [DDAVP, 1-deamino-8-D-arginine vasopressin]	no side-effects were experienced	therapeutic effect was obtained	dosedependent effect	at least 6 hours	immediate antidiuretic response	high and specific antidiuretic activity		
1-deamino-4-asparagine-8-D-arginine-vasopressin [Example 4-Asn-DDAVP]							no therapeutic effect	only a moderate, extremely short-lived, effect
